Holding throughout (assay type): cell-based
In assay [1] the test system is Aβ42. The assay can be described thus: Method 1: Aβ42 sandwich ELISA on media of SKNBE2 cells carrying APP 695 wild type (γ-secretase-modulating activity). To be noted: SKNBE2 cells APP 695 wild type, 18 hours. On the procedure:
(§1) Screening was carried out using SKNBE2 cells carrying the APP 695—wild type, grown in Dulbecco's Modified Eagle's Medium/Nutrient mixture F-12 (DMEM/NUT-mix F-12) (HAM) provided by Gibco (cat no. 31330-38) containing 5% Serum/Fe supplemented with 1% non-essential amino acids. Cells were grown to near confluency.
(§2) The screening was performed using the assay as described in Citron et al (1997) Nature Medicine 3: 67. Briefly, cells were plated in a 96-well plate at about 10^5 cells/ml one day prior to addition of compounds. Compounds were added to the cells in Ultraculture (Lonza, BE12-725F) supplemented with 1% glutamine (Invitrogen, 25030-024) for 18 hours. The media were assayed by two sandwich ELISAs, for Aβ42 and Aβtotal. Toxicity of the compounds was assayed by WST-1 cell proliferation reagent (Roche, 1 644 807) according to the manufacturer's protocol.
To quantify the amount of Aβ42 in the cell supernatant, commercially available Enzyme-Linked-Immunosorbent-Assay (ELISA) kits were used (Innotest® β-Amyloid(1-42), Innogenetics N.V., Ghent, Belgium). The Aβ42 ELISA was performed essentially according to the manufacturer's protocol. Briefly, the standards (dilutions of synthetic A131-42) were prepared in polypropylene Eppendorf with final concentrations of 8000 down to […] (½ dilution step). Samples, standards and blanks (100 μl) were added to the anti-Aβ42-coated plate supplied with the kit (the capture antibody selectively recognizes the C-terminal end of the antigen). The plate was allowed to incubate 3 h at 25° C. in order to allow formation of the antibody-amyloid complex. Following this incubation and subsequent wash steps a selective anti-A13-antibody conjugate (biotinylated 3D6) was added and incubated for a minimum of 1 hour in order to allow formation of the antibody-Amyloid-antibody-complex. After incubation and appropriate wash steps, a Streptavidine-Peroxidase-Conjugate was added, followed 30 minutes later by an addition of 3,3′,5,5′-tetramethylbenzidine (TMB)/peroxide mixture, resulting in the conversion of the substrate into a coloured product. This reaction was stopped by the addition of sulfuric acid (0.9 N) and the colour intensity was measured by means of photometry with an ELISA-reader with a 450 nm filter.
(§3) To obtain the values reported in Table 3a, the sigmoidal dose response curves were analysed by computerised curve-fitting, with percent of inhibition plotted against compound concentration. A 4-parameter equation (model 205) in XLfit was used to determine the IC50. The top and the bottom of the curve were fixed to 100 and 0, respectively, and the hill slope was fixed to 1. The IC50 represents the concentration of a compound that is required for inhibiting a biological effect by 50% (Here, it is the concentration where Aβ peptide level is reduced by 50%).
(In general: ELISA stands for enzyme-linked immunosorbent assay.)

The subject of assay [2] is Aβtotal. In words: Method 1: Aβtotal sandwich ELISA on media of SKNBE2 cells carrying APP 695 wild type. To be noted: SKNBE2 cells APP 695 wild type, 18 hours. On the procedure:
as §1, §2
To quantify the amount of Aβtotal in the cell supernatant, samples and standards were added to a 6E10-coated plate. The plate was allowed to incubate overnight at 4° C. in order to allow formation of the antibody-amyloid complex. Following this incubation and subsequent wash steps a selective anti-AB-antibody conjugate (biotinylated 4G8) was added and incubated for a minimum of 1 hour in order to allow formation of the antibody-Amyloid-antibody-complex. After incubation and appropriate wash steps, a Streptavidine-Peroxidase-Conjugate was added, followed 30 minutes later by an addition of Quanta Blu fluorogenic peroxidase substrate according to the manufacturer's instructions (Pierce Corp., Rockford, Il).
as §3

The test system of assay [3] is Aβ42. The assay can be described thus: Method 2: Aβ42 Alphalisa on supernatant of SKNBE2 cells carrying APP 695 wild type. To be noted: SKNBE2 cells APP 695 wild type, overnight. The procedure: (§4) Screening was carried out using SKNBE2 cells carrying the APP 695—wild type, grown in Dulbecco's Modified Eagle's Medium/Nutrient mixture F-12 (DMEM/NUT-mix F-12) (HAM) provided by Invitrogen (cat no. 10371-029) containing 5% Serum/Fe supplemented with 1% non-essential amino acids, 1-glutamine 2 mM, Hepes 15 mM, penicillin 50 U/ml (units/ml) en streptomycin 50 μg/ml. Cells were grown to near confluency.
(§5) The screening was performed using a modification of the assay as described in Citron et al (1997) Nature Medicine 3: 67. Briefly, cells were plated in a 384-well plate at 10^4 cells/well in Ultraculture (Lonza, BE12-725F) supplemented with 1% glutamine (Invitrogen, 25030-024), 1% non-essential amino acid (NEAA), penicillin 50 U/ml en streptomycin 50 μg/ml in the presence of test compound at different test concentrations. The cell/compound mixture was incubated overnight at 37° C., 5% CO2, The next day the media were assayed by two sandwich immuno-assays, for Aβ42 and Aβtotal.
(§6) Aβtotal and Aβ42 concentrations were quantified in the cell supernatant using the Aphalisa technology (Perkin Elmer). Alphalisa is a sandwich assay using biotinylated antibody attached to streptavidin coated donorbeads and antibody conjugated to acceptor beads. In the presence of antigen, the beads come into close proximity. The excitation of the donor beads provokes the release of singlet oxygen molecules that trigger a cascade of energy transfer in the acceptor beads, resulting in light emission. To quantify the amount of Aβ42 in the cell supernatant, monoclonal antibody specific to the C-terminus of Aβ42 (JRF/cAβ42/26) was coupled to the receptor beads and biotinylated antibody specific to the N-terminus of AB (JRF/AβN/25) was used to react with the donor beads. To quantify the amount of Aβtotal in the cell supernatant, monoclonal antibody specific to the N-terminus of AB (JRF/AβN/25) was coupled to the receptor beads and biotinylated antibody specific to the mid region of Aβ (biotinylated 4G8) was used to react with the donor beads.
(§7) To obtain the values reported in Table 3b, the data were calculated as percentage of the maximum amount of amyloid Beta 42 measured in the absence of the test compound. The sigmoidal dose response curves were analyzed using non-linear regression analysis with percentage of the control plotted against the log concentration of the compound. A 4-parameter equation was used to determine the IC50.

Assay [4] deals with Aβtotal. The assay can be described thus: Method 2: Aβtotal Alphalisa on supernatant of SKNBE2 cells carrying APP 695 wild type. To be noted: SKNBE2 cells APP 695 wild type, overnight. On the procedure:
as §4, §5, §6, §7
A general note: In Alpha technology, singlet oxygen from a donor bead excites a nearby acceptor bead.

pIC50: −log10 of the molar value.

In the case of `CCCCn1cc2cccc(Nc3ccc(-n4cnc(C)c4)c(OC)c3)c2n1` [Compound 3, 2-butyl-N-[3-methoxy-4-(4-methyl-1H-imidazol-1-yl)phenyl]-2H-indazol-7-amine .2HCl], the pIC50 (as a rule, −log10 of the IC50, conventionally taken in molar units) in the assay with Aβ42 [1] (Homo sapiens) was 6.95; in the assay on Aβtotal [2] (Homo sapiens), < 5.52; in the assay with Aβ42 [3] (Homo sapiens), > 5.52; in the assay on Aβtotal [4] (Homo sapiens) it was < 5.52.

Take `COc1cccc(-n2nc3c(Nc4ccc(-c5ocnc5C)nc4)cccc3c2C)c1` [Compound 4, 2-(3-methoxyphenyl)-3-methyl-N-[6-(4-methyl-5-oxazolyl)-3-pyridinyl]-2H-indazol-7-amine]: the pIC50 in the assay on Aβ42 [1] (Homo sapiens) is 7.26; in the assay on Aβtotal [2] (Homo sapiens), < 5.52; with Aβ42 [3] (Homo sapiens) it was 7.66; with Aβtotal [4] (Homo sapiens), 5.32.

For `COc1cccc(-n2nc3c(Nc4ccc(-n5cnc(C)n5)c(OC)c4)cccc3c2C)c1` [Compound 5, N-[3-methoxy-4-(3-methyl-1H-1,2,4-triazol-1-yl)phenyl]-2-(3-methoxyphenyl)-3-methyl-2H-indazol-7-amine .1.9HCl], the pIC50 in the assay with Aβ42 [1] (Homo sapiens) was 7.51; with Aβtotal [2] (Homo sapiens) it was < 5.52; in the assay with Aβ42 [3] (Homo sapiens), 7.74; in the assay on Aβtotal [4] (Homo sapiens), 5.09.

With `COc1cc(Nc2cccc3cn(C)nc23)ccc1-n1cnc(C)c1` [Compound 9, N-[3-methoxy-4-(4-methyl-1H-imidazol-1-yl)phenyl]-2-methyl-2H-indazol-7-amine], the pIC50 in the assay with Aβ42 [1] (Homo sapiens) is 5.83; in the assay on Aβtotal [2] (Homo sapiens), < 5.00; with Aβ42 [3] (Homo sapiens) it was > 5.52; in the assay with Aβtotal [4] (Homo sapiens), < 5.52.

`CCCCn1nc2c(Nc3ccc(-n4cnc(C)c4)c(OC)c3)cccc2c1C` [Compound 10, 2-butyl-N-[3-methoxy-4-(4-methyl-1H-imidazol-1-yl)phenyl]-3-methyl-2H-indazol-7-amine .2HCl]: the pIC50 in the assay on Aβ42 [1] is 7.00; with Aβtotal [2], < 5.52; with Aβ42 [3], > 5.52; in the assay with Aβtotal [4] it was < 5.52.

Regarding `CCCCn1cc2cc(CN)cc(Nc3ccc(-n4cnc(C)c4)c(OC)c3)c2n1` [Compound 12, 2-butyl-7-[[3-methoxy-4-(4-methyl-1H-imidazol-1-yl)phenyl]amino]-2H-indazole-5-methanamine .4HCl], the pIC50 in the assay on Aβ42 [3] was < 5.52.

In the case of `CCOc1cc(C)c(-n2nc3c(Nc4ccc(-n5cnc(C)c5)c(OC)c4)cccc3c2C)cc1C(C)C` [Compound 14, 2-[4-ethoxy-2-methyl-5-(1-methylethyl)phenyl]-N-[3-methoxy-4-(4-methyl-1H-imidazol-1-yl)phenyl]-3-methyl-2H-indazol-7-amine], the pIC50 with Aβ42 [1] (Homo sapiens) is 7.54; in the assay on Aβ42 [3] (Homo sapiens) it was 7.70; with Aβtotal [4] (Homo sapiens), 5.15.

For `COc1cc(Nc2cccc3cn(C)nc23)ccc1-n1cnc(C)n1` [Compound 17, N-[3-methoxy-4-(3-methyl-1H-1,2,4-triazol-1-yl)phenyl]-2-methyl-2H-indazol-7-amine], the pIC50 in the assay on Aβ42 [3] (Homo sapiens) and in the assay on Aβtotal [4] (Homo sapiens) was < 5.52 throughout.

For the compound `Cc1ncc(-c2ccc(Nc3cccc4cn(C5CCC5)nc34)cc2)o1` [Compound 26, 2-cyclobutyl-N-[4-(2-methyl-5-oxazolyl)phenyl]-2H-indazol-7-amine .1.2HCl], the pIC50 in the assay on Aβ42 [3] and in the assay on Aβtotal [4] was < 5.52 throughout.

On to `COCCn1cc2cccc(Nc3ccc(-c4cnc(C)o4)cc3)c2n1` [Compound 27, 2-(2-methoxyethyl)-N-[4-(2-methyl-5-oxazolyl)phenyl]-2H-indazol-7-amine .1.5HCl .1.25H2O], for which, in the assay on Aβ42 [3], the pIC50 is < 5.52.

Turning to `COCCn1cc2cccc(Nc3ccc(-c4ocnc4C)c(OC)c3)c2n1` [Compound 36, 2-(2-methoxyethyl)-N-[3-methoxy-4-(4-methyl-5-oxazolyl)phenyl]-2H-indazol-7-amine .1.5HCl .0.18H2O], the pIC50 with Aβ42 [3] was < 5.52.

In the assay with Aβ42 [3], `Cc1ncc(-c2ccc(Nc3cccc4cn(CC5CC5)nc34)cn2)o1` [Compound 43, 2-(cyclopropylmethyl)-N-[6-(2-methyl-5-oxazolyl)-3-pyridinyl]-2H-indazol-7-amine .2HCl] had a pIC50 of 5.85.

In the case of `Cc1ncc(-c2ccc(Nc3cc(F)cc4c(C)n(-c5ccc(F)cc5)nc34)cn2)o1` [Compound 47, 5-fluoro-2-(4-fluorophenyl)-3-methyl-N-[6-(2-methyl-5-oxazolyl)-3-pyridinyl]-2H-indazol-7-amine], the pIC50 is 7.46 in the assay on Aβ42 [3] (Homo sapiens) and 5.16 with Aβtotal [4] (Homo sapiens).

In the case of `COc1cc(Nc2cccc3cn(C)nc23)ccc1-c1cnc(C)s1` [Compound 49, N-[3-methoxy-4-(2-methyl-5-thiazolyl)phenyl]-2-methyl-2H-indazol-7-amine], the pIC50 in the assay on Aβ42 [3] (Homo sapiens) and in the assay on Aβtotal [4] (Homo sapiens) was < 5.52 in each case.

`COc1cc(Nc2cccc3c(C)n(-c4ccc(F)cc4F)nc23)ccc1-c1cnc(C)s1` [Compound 50, 2-(2,4-difluorophenyl)-N-[3-methoxy-4-(2-methyl-5-thiazolyl)phenyl]-3-methyl-2H-indazol-7-amine]: the pIC50 in the assay with Aβ42 [1] (Homo sapiens) is 6.06; in the assay on Aβ42 [3] (Homo sapiens) it was 6.17; in the assay on Aβtotal [4] (Homo sapiens) it was < 5.00.

In the case of `COc1cccc(-n2nc3c(Nc4ccc(-c5ccnn5C)cc4)cccc3c2C)c1` [Compound 53, 2-(3-methoxyphenyl)-3-methyl-N-[4-(1-methyl-1H-pyrazol-5-yl)phenyl]-2H-indazol-7-amine .2HCl .0.5H2O], the results for the pIC50 in the assay on Aβ42 [3] and with Aβtotal [4] were 6.20 and < 5.00, respectively.

`Cc1cn(-c2ccc(Nc3cncc4cn(CC(F)(F)F)nc34)cc2F)cn1` [Compound 55, N-[3-fluoro-4-(4-methyl-1H-imidazol-1-yl)phenyl]-2-(2,2,2-trifluoroethyl)-2H-pyrazolo[4,3-c]pyridin-7-amine]: the results for the pIC50 in the assay on Aβ42 [3] (Homo sapiens) and with Aβtotal [4] (Homo sapiens) were 6.22 and < 5.00, respectively.

As for `COc1cc(Nc2cc(C(C)C)nc3cn(CC(F)(F)F)nc23)ccc1-n1cnc(C)n1` [Compound 56, N-[3-methoxy-4-(3-methyl-1H-1,2,4-triazol-1-yl)phenyl]-5-(1-methylethyl)-2-(2,2,2-trifluoroethyl)-2H-pyrazolo[4,3-b]pyridin-7-amine], the values for the pIC50 with Aβ42 [3] (Homo sapiens) and in the assay with Aβtotal [4] (Homo sapiens) were 6.15 and < 5.00, respectively.

Values taken from patent US20120095036A1, “NOVEL SUBSTITUTED INDAZOLE AND AZA-INDAZOLE DERIVATIVES AS GAMMA SECRETASE MODULATORS” (priority 2009, published 2012).
